SMILES strings stand for the structures. Some results are limits rather than exact numbers.

The species entered for assay [1] is Homo sapiens. The assay is described as follows: Selectivity ratio of Ki for wild type human DDT to Ki for wild type human MIF.
Assay [2] deals with T1, D-dopachrome decarboxylase (Homo sapiens, UniProt P30046). The assay can be described thus: Inhibition of wild type human DDT tautomerase activity at 100 uM relative to control.
The target in assay [3] is T2, Macrophage migration inhibitory factor (Homo sapiens, UniProt P14174).
T2 sequence (P14174 whole entry): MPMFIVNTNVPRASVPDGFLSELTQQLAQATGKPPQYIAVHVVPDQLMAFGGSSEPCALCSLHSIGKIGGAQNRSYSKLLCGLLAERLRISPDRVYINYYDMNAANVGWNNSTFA
The assay can be described thus: Binding affinity to wild type human MIF extracted from Escherichia coli BL 21 (DE3) assessed as inhibition constant.

In assay [4] the target is T2, Macrophage migration inhibitory factor. The assay can be described thus: Inhibition of human recombinant MIF incubated for 30 mins by microplate reader assay.
Assay [5] has the same target. The assay is described as follows: Inhibition of human recombinant MIF tautomerase activity.
The target of assay [6] is T1, D-dopachrome decarboxylase. The assay can be described thus: Inhibition of human DDT extracted from Escherichia coli.
Assay [7] addresses T2, Macrophage migration inhibitory factor. The assay can be described thus: Inhibition of human full length MIF extracted from Escherichia coli BL21 (DE3) by UV absorbance based analysis.
For assay [8] the target is unchanged. The assay can be described thus: Inhibition of human recombinant MIF extracted from Escherichia coli BL21 (DE3).
For assay [9] the target is unchanged. The assay can be described thus: Binding affinity to human recombinant MIF extracted from Escherichia coli BL21 (DE3) assessed as inhibition constant.
For assay [10], the target named is T3, Macrophage migration inhibitory factor (Homo sapiens) (UniProt P14174).
T3 sequence (whole entry): T2 sequence (P14174 whole entry)
The assay can be described thus: Potency index, ratio of ISO-1 IC50 to test compound IC50 for inhibition of human recombinant MIF.

For assay [11], the target named is T1, D-dopachrome decarboxylase. The assay can be described thus: Binding affinity to human DDT extracted from Escherichia coli assessed as inhibition constant.
For assay [12], the target named is T2, Macrophage migration inhibitory factor. The assay is described as follows: Inhibition of MIF (unknown origin).

T1 sequence (P30046 whole entry): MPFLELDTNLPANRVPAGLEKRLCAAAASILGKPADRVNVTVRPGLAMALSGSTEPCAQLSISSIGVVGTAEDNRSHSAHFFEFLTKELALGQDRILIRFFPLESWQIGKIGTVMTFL

For the compound `O=C(O)c1ccc(C(=O)O)nc1` [PYRIDINE-2,5-DICARBOXYLIC ACID], the Ratio Ki in assay [1] stood at 79. Also, in assay [2], the inhibition was less than 25%. Also, the Ki in assay [3] was found to be 17.2 µM. With `Cc1c(C(=O)c2ccc(Cl)cc2)oc2cc(N)ccc12`, the IC50 in [4] was 14 µM. On to `COc1ccccc1/C=C1\COc2ccccc2C1=O`, for which the IC50 in assay [5] amounted to 4.31 µM. In the case of `Cc1cc(-c2ccccc2)ncn1`, in [6], the IC50 is more than 500 µM. For `O=C1/C(=C/c2ccco2)CCc2ccccc21`, the IC50 in assay [5] was determined as 57.7 µM.

Regarding `O=C1/C(=C/c2ccccc2)CCCc2ccccc21`, in assay [5], the IC50 was 84 µM. On the same count and under the same terms, then `O=C1/C(=C/c2ccc3cc[nH]c3c2)CCc2ccccc21`, with 58.8 µM.

In [2], `c1ccc(-c2ccncc2)cc1` showed an inhibition of more than 100%.

`O=C(O)c1cccnc1` showed an inhibition in [2] of more than 100%.

`O=C(CSc1cc(-c2ccccc2)ncn1)c1ccc(O)cc1O`: the IC50 in [4] was determined as 9.49 µM. For `Cc1cc(C(c2ccccn2)N2CCOCC2)c(NC(=O)c2ccco2)s1` (centres undefined), the IC50 in [7] amounted to 6.44 µM. For the compound `COc1cc(/C=C2\CCc3cc(O)ccc3C2=O)ccc1O`, in [5], the IC50 is 4.31 µM.

For the compound `O=c1c(-c2c(O)cc(O)c3c(=O)cc(-c4ccc(O)cc4)oc23)c(-c2ccc(O)cc2)oc2cc(O)cc(O)c12`, the IC50 in [8] came to 13.3 µM. For the same compound, the Ki in [9] came to 10.1 µM. Regarding `O=c1c(O)c(-c2ccc(O)cc2)oc2cc(O)cc(O)c12` [KAEMPFEROL], the Ratio IC50 in assay [10] amounted to 17.2. For the same compound, the IC50 in assay [8] stood at 189 µM. For `O=c1oc2ccc(F)cc2cc1-c1nc(-c2cccs2)no1`, the IC50 in assay [4] came out at 7.57 µM.

For the compound `C[C@@H]1O[C@@H](O[C@H]2[C@H](Oc3cc(O)c4c(c3)O[C@@H](c3ccc(O)cc3)CC4=O)O[C@H](CO)[C@@H](O)[C@@H]2O)[C@H](O)[C@H](O)[C@H]1O`, the Ratio IC50 in assay [10] was 13.3. Further, in assay [8], the IC50 stood at 51.4 µM. For the same compound, the inhibitory constant (Ki) in assay [9] came to 43.5 µM.

With `CC(=O)NS(=O)(=O)c1ccc(NC(=O)CC(C)(C)C)cc1`, the IC50 in assay [4] was 1.22 µM.

Consider `O=C(O)c1cccc(-c2cc(C(=O)O)ncc2C(=O)O)c1`, for which the inhibition constant (Ki) in assay [11] is 33 µM.

For `O=C(O)c1ccc(C(=O)O)cc1`, in [2], the inhibition is more than 75%.

As for `O=C1/C(=C/c2ccncc2)CCc2ccccc21`, the IC50 in [5] came out at 21 µM.

On to `Cc1ccc(/C=C2\CCc3ccccc3C2=O)cc1`, for which the IC50 in assay [5] worked out at 16.5 µM. Take `CCC(CC)c1nnc(NC(=O)Oc2ccccc2)s1`: in assay [4], the IC50 was determined as 12 µM.

As for `O=C(CC1(O)C(=O)N(Cc2ccccc2Cl)c2ccccc21)C1Cc2ccccc2OC1=O` (centres undefined), in assay [4], the IC50 turned out to be 7.55 µM.

As to `O=C1/C(=C/c2ccccc2)CCc2ccccc21`, in assay [5], the IC50 worked out at 127 µM. For the compound `COc1ccc(C(=O)Nc2nnc(-c3ccco3)o2)c(OC)c1`, 6.87 µM corresponded to half-maximal inhibition in assay [7] (IC50). Turning to `O=C1/C(=C/c2cccnc2)CCc2ccccc21`, the IC50 in assay [5] was 20.3 µM.

`O=c1c(O)c(-c2ccc(O)cc2O)oc2cc(O)cc(O)c12` [MORIN]: the Ratio IC50 in assay [10] came out at 6.3. Also, the IC50 in assay [8] was found to be 11 µM. Moreover, the Ki in assay [9] came to 8.95 µM.

As to `COC(=O)c1ccc(O)c2nc3c(C=O)c(O)cc(O)c3nc12` [LOMOFUNGIN], in [12], the IC50 is 0.47 µM.

In turn, `Nc1ccccc1NC(=O)c1ccc(NC(=O)Cc2ccc(N3Cc4ccc(O)cc4OC3=O)cc2)cc1` registered a concentration for half-maximal inhibition (IC50) in assay [12] of 0.81 µM. Take `O=C(O)c1ccccn1`: in [2], the inhibition is more than 75%. Take `Cn1cccc1/C=C1\CCc2ccccc2C1=O`: the IC50 in [5] stood at 23.8 µM.

Values taken from ChEMBL document CHEMBL6182842, “Progress in the development of macrophage migration inhibitory factor small-molecule inhibitors” (Eur J Med Chem, 2025).
